Measurements reported in patent publication US5607926A, “Cephalosporin antibiotics” (Microcide Pharmaceuticals, Inc., priority 1995, dated 1997).
Converted amounts (≈) assume the structure as drawn. Structures can show the parent of a compound that is named as a salt. Where two headings read alike, the source gives them in different places.

Assays:
Type in all cases: cell-based
[1] = test system: S. aureus 76 (Meth^R)(lac^+); assay: In vitro antibacterial evaluation, MIC by agar dilution, S. aureus 76; conditions: Staphylococcus aureus, read-out: MIC
Method: (§1) The compounds of the invention were evaluated against several β-lactamresistant bacteria strains by determining the minimum inhibitory concentration (MIC, μg/ml) of each compound with respect to each strain. The MIC, the lowest concentration of antibiotic which inhibits growth of the test organism, was determined by the agar dilution method.
(§2) To determine the MIC for bacterial isolates, the test compound was incorporated in a series of two-fold dilutions into liquified Mueller-Hinton agar. Upon solidification, a number of different bacterial strains were spot inoculated with a replicating device onto the agar surface. […] The procedures used in these studies have been standardized by the National Committee for Clinical Laboratory Standards (NCCLS), as per the NCCLS publication entitled METHODS FOR DILUTION ANTIMICROBIAL SUSCEPTIBILITY TESTS (1991), which is incorporated herein by reference.
(§3) Aliquots of antimicrobial agents were prepared in phosphate buffered saline (PBS) at pH 7.2. Tween 20 or DMSO was used as a solubilizing vehicle as needed. Standard methods of vortexing, sonicating and gentle heat were used to facilitate solubilizing the test agent. Typically, the concentration of the stock solution was 10× that of the highest drug concentration tested. A 1.28 mg/mL stock solution was used with a subsequent highest working concentration of 128 μg/mL. Serial two-fold dilutions were done through ≤0.25 μg/mL. Each drug level was tested in duplicate. Two-fold drug dilutions were done in sterile 50 mL tubes with a final drug volume of 5 mL. Upon the addition of 45 mL of molten agar, a 10-fold dilution resulted. Two, 25 mL. plates were then poured into 15×150 mm square Petri plates with grids and allowed to harden.
(§4) A control plate with a reference drug, either cefotaxime, vancomycin or imipenem, was used as the positive growth control. Stock concentrations of reference antibiotics were prepared and frozen at -80° C. Upon preparation, the control plates were sealed and stored in the refrigerator for up to 1 week prior to use; however, imipenem control plates had to be prepared just prior to use. All test plates were used within 24 hours of preparation.
(§5) Satisfactory results were obtained where the inoculum contained about 10^4 colony forming units (cfu) ±0.5 logs. Starting with pure cultures of the test isolates on agar plates, a few isolated colonies were transferred to a tube of nutrient broth and allowed to grow 4-6 hours at 35°-36° C. to reach log-phase growth. Dropwise addition of the broth culture to PBS was done to match a 0.5 McFarland turbidity standard equal to 10^8 cfu/mL. This was further diluted ten-fold in PBS to reach a working inoculum concentration of 10^7 cfu/mL. When 1 μL of the working inoculum was applied to the agar surface a concentration of about 10^4 cfu per spot was obtained.
(§6) Disposable sterile 1 μL loops were used to inoculate test plates, with each isolate in a designated grid on the agar plate. An alternate method of inoculation involved the use of a replica plater, a device with 48 steel pins allowing the simultaneous inoculation of multiple isolates. After the spots had dried, the plates were incubated at 35°-36° C. for 16-20 hours. Endpoints were assessed as the minimum inhibitory concentration (MIC) of antimicrobial agent.

[2] = test system: S. haemolyticus (Meth^R); assay: In vitro antibacterial evaluation, MIC by agar dilution, S. haemolyticus; conditions: Staphylococcus haemolyticus, read-out: MIC
Method: as §1, §2, §3, §4, §5, §6

[3] = test system: E. faecium ATCC 35667; assay: In vitro antibacterial evaluation, MIC by agar dilution, E. faecium ATCC 35667; conditions: Enterococcus faecium, ATCC35667, read-out: MIC
Method: as §1, §2, §3, §4, §5, §6

[4] = test system: E. coli ATCC 25922; assay: In vitro antibacterial evaluation, MIC by agar dilution, E. coli ATCC 25922; conditions: Escherichia coli, ATCC25922, read-out: MIC
Method: as §1, §2, §3, §4, §5, §6

[5] = test system: S. epidermidis ATCC 31432; assay: In vitro antibacterial evaluation, MIC by agar dilution, S. epidermidis ATCC 31432; conditions: Staphylococcus epidermidis, ATCC31432
Method: as §1, §2, §3, §4, §5, §6

[6] = test system: S. aureus Col8A (Meth^S)(lac^-); assay: In vitro antibacterial evaluation, MIC by agar dilution, S. aureus Col8A; conditions: Staphylococcus aureus
Method: as §1, §2, §3, §4, §5, §6
The novel agents of this invention are notable for their enhanced activity against S. aureus Col and Enterococci (E. faecium and E. faecalis). The S. aureus Col strain is a high-level PBP2a producer, whereas S. aureus Col 8A, its isogenic partner, lacks PBP2a. […] Thus, the compounds of the present invention are effective against PBP2a-producing bacteria.

[7] = test system: S. aureus ATCC 29213; assay: In vitro antibacterial evaluation, MIC by agar dilution, S. aureus ATCC 29213; conditions: Staphylococcus aureus, ATCC29213
Method: as §1, §2, §3, §4, §5, §6

[8] = test system: P. aeruginosa ATCC 27853; assay: In vitro antibacterial evaluation, MIC by agar dilution, P. aeruginosa ATCC 27853; conditions: Pseudomonas aeruginosa, ATCC27853, read-out: MIC
Method: as §1, §2, §3, §4, §5, §6

[9] = test system: E. faecalis ATCC 29212; assay: In vitro antibacterial evaluation, MIC by agar dilution, E. faecalis ATCC 29212; conditions: Enterococcus faecalis, ATCC29212; E. faecalis ATCC 29212; read-out: MIC
Method: as §1, §2, §3, §4, §5, §6

[10] = S. aureus ATCC 29213, read-out: MIC

Structure (SMILES) | MIC [1] | MIC [2] | MIC [3] | MIC [4] | MIC ([5]; S. epidermidis ATCC 31432, read-out: MIC) | MIC [6] | MIC [5] | MIC [7] | MIC [8] | MIC [9] | MIC [7, 10]
O=C(Cc1ccccc1)N[C@@H]1C(=O)N2C(C(=O)O)=C(Sc3cc(Cl)ccc3Cl)CS[C@H]12 [Cmpd 16, (7R)-7-[(Phenylacetyl)amino]-3-(2,5-dichlorophenylthio)-3-cephem-4-carboxylic acid] | 4 µg/mL (≈ 8.07 µM) | 16 µg/mL (≈ 32.3 µM) | 4 µg/mL (≈ 8.07 µM) | > 16 µg/mL | < 0.5 µg/mL | – | – | – | – | – | –
O=C(Cc1ccccc1)N[C@@H]1C(=O)N2C(C(=O)O)=C(Sc3ccc(Cl)c(Cl)c3)CS[C@H]12 [Cmpd 18, (7R)-7-[(Phenylacetyl)amino]-3-(3,4-dichlorophenylthio)-3-cephem-4-carboxylic acid] | 16 µg/mL (≈ 32.3 µM) | 32 µg/mL (≈ 64.6 µM) | 4 µg/mL (≈ 8.07 µM) | > 32 µg/mL | – | < 0.25 µg/mL | < 0.25 µg/mL | < 0.25 µg/mL | – | – | –
COC(=O)c1ccccc1SC1=C(C(=O)O)N2C(=O)[C@@H](NC(=O)Cc3ccccc3)[C@H]2SC1 [Cmpd 19, (7R)-7-[(Phenylacetyl)amino]-3-(o-carbomethoxyphenylthio)-3-cephem-4-carboxylic acid] | 16 µg/mL (≈ 33 µM) | 32 µg/mL (≈ 66 µM) | 2 µg/mL (≈ 4.13 µM) | > 32 µg/mL | – | < 0.25 µg/mL | < 0.25 µg/mL | < 0.25 µg/mL | – | – | –
O=C(Cc1cccs1)N[C@@H]1C(=O)N2C(C(=O)O)=C(Sc3ccnn3-c3ccccc3)CS[C@H]12 [Cmpd 116, (7R)-7-[(2-thienylacetyl)amino]-3-(1-N-phenylpyrazol-5-ylthio)-3-cephem-4-carboxylic acid] | 16 µg/mL (≈ 32.1 µM) | 16 µg/mL (≈ 32.1 µM) | 2 µg/mL (≈ 4.01 µM) | > 32 µg/mL | – | 0.125 µg/mL (≈ 0.251 µM) | – | – | > 32 µg/mL | 2 µg/mL (≈ 4.01 µM) | 0.25 µg/mL (≈ 0.501 µM)
COc1cccc(-n2nccc2SC2=C(C(=O)O)N3C(=O)[C@@H](NC(=O)Cc4ccccc4)[C@H]3SC2)c1 [Cmpd 117, (7R)-7-[(Phenylacetyl)amino]-3-(1-N-(3-methoxyphenyl)pyrazol-5-ylthio)-3-cephem-4-carboxylic acid] | 16 µg/mL (≈ 30.6 µM) | 32 µg/mL (≈ 61.2 µM) | 1 µg/mL (≈ 1.91 µM) | > 32 µg/mL | – | 0.125 µg/mL (≈ 0.239 µM) | – | – | > 32 µg/mL | 2 µg/mL (≈ 3.83 µM) | 0.25 µg/mL (≈ 0.478 µM)
Nc1nnc(SCC(=O)N[C@@H]2C(=O)N3C(C(=O)O)=C(Sc4ccnn4-c4ccccc4)CS[C@H]23)s1 [Cmpd 120] | 16 µg/mL (≈ 29.2 µM) | 32 µg/mL (≈ 58.4 µM) | 8 µg/mL (≈ 14.6 µM) | > 32 µg/mL | – | 0.25 µg/mL (≈ 0.456 µM) | – | 0.25 µg/mL (≈ 0.456 µM) | > 32 µg/mL | 4 µg/mL (≈ 7.3 µM) | –
O=C(O)C1=C(Sc2ccnn2-c2ccccc2)CS[C@@H]2[C@H](NC(=O)C(=NO)c3ccco3)C(=O)N12 [Cmpd 121, (7R)-7-[2-(2-furyl)-2-(hydroxyimino)acetamido]-3-(1-N-phenylpyrazol-5-ylthio)-3-cephem-4-carboxylic acid] | 8 µg/mL (≈ 15.6 µM) | 16 µg/mL (≈ 31.3 µM) | 2 µg/mL (≈ 3.91 µM) | > 32 µg/mL | – | 0.5 µg/mL (≈ 0.977 µM) | – | – | > 32 µg/mL | 0.5 to 1 µg/mL (≈ 0.977 to 1.95 µM) | 0.5 µg/mL (≈ 0.977 µM)
O=C(Cc1ccccc1)N[C@@H]1C(=O)N2C(C(=O)O)=C(Sc3ccnn3-c3ccc(F)cc3)CS[C@H]12 [Cmpd 123, (7R)-7-[(Phenylacetyl)amino]-3-(1-N-(4-fluorophenyl)pyrazol-5-ylthio)-3-cephem-4-carboxylic acid] | 8 µg/mL (≈ 15.7 µM) | 16 µg/mL (≈ 31.3 µM) | 4 µg/mL (≈ 7.83 µM) | > 32 µg/mL | – | ≤ 0.06 µg/mL | – | – | > 32 µg/mL | 2 µg/mL (≈ 3.92 µM) | 0.06 µg/mL (≈ 0.118 µM)
N=C(N)SCc1ccccc1SC1=C(C(=O)O)N2C(=O)[C@@H](NC(=O)Cc3ccc(CN)cc3)[C@H]2SC1 [Cmpd 124, (7R)-7-[((4-aminomethylphenyl)acetyl)amino]-3-(2-isothiouroniummethylphenylthio)-3-cephem-4-carboxylate, trifluoroacetic acid salt] | 16 µg/mL | 16 µg/mL | 1 µg/mL | > 32 µg/mL | – | 0.25 µg/mL | – | 0.25 µg/mL | > 32 µg/mL | 1 µg/mL | –
O=C(Cc1ccccc1)N[C@@H]1C(=O)N2C(C(=O)O)=C(Sc3ccccc3-n3cccn3)CS[C@H]12 [Cmpd 132, (7R)-7-[(Phenylacetyl)amino]-3-(2-(pyrazol-1-yl)phenylthio)-3-cephem-4-carboxylic acid] | 32 µg/mL (≈ 65 µM) | > 32 µg/mL | 4 µg/mL (≈ 8.12 µM) | > 32 µg/mL | – | 0.25 µg/mL (≈ 0.508 µM) | – | – | > 32 µg/mL | 4 µg/mL (≈ 8.12 µM) | 0.125 µg/mL (≈ 0.254 µM)
CSCC(=O)N[C@@H]1C(=O)N2C(C(=O)O)=C(Sc3ccccc3CSC(=N)NN)CS[C@H]12 [Cmpd 133, (7R)-7-[(methylthioacetyl)amino]-3-(2-(N-amino)isothiouroniummethylphenylthio)-3-cephem-4-carboxylate, inner salt] | 8 µg/mL | 16 µg/mL | 1 µg/mL | > 32 µg/mL | – | 0.125 µg/mL | – | 0.125 µg/mL | > 32 µg/mL | 1 µg/mL | –
N=C(N)SCc1ccccc1SC1=C(C(=O)O)N2C(=O)[C@@H](NC(=O)CSCCCI)[C@H]2SC1 [Cmpd 134, (7R)-7-[(3-iodoprop-1-ylthioacetyl)amino]-3-(2-isothiouroniummethylphenylthio)-3-cephem-4-carboxylate, inner salt] | 8 µg/mL | 16 µg/mL | 1 µg/mL | > 32 µg/mL | – | 0.125 µg/mL | – | 0.125 µg/mL | > 32 µg/mL | 0.5 µg/mL | –
CSCC(=O)N[C@@H]1C(=O)N2C(C(=O)O)=C(Sc3ccccc3CNC(=N)N)CS[C@H]12 [Cmpd 135, (7R)-7-[(Methylthioacetyl)amino]-3-(2-guanidiniummethylphenylthio)-3-cephem-4-carboxylate, inner salt] | 16 µg/mL | 32 µg/mL | 2 to 4 µg/mL | > 32 µg/mL | – | ≤ 0.06 µg/mL | – | – | > 32 µg/mL | 2 to 4 µg/mL | 0.125 µg/mL
